In assay [1] the test system is ATII cells from influenza A/WSN/33 (H1N1)-infected mice. The assay can be described thus: Effect of influenza infection and CDP-choline treatment on ATII cell ultrastructure (transmission electron micrographs). The class given is in vivo, mouse. An excerpt:
FIG. 14 is a group of three transmission electron micrographs showing effects of CDP-choline treatment on ultrastructure of ATII cell lamellar bodies (composed of surfactant lipids and proteins). Relative to mock-infected controls, lamellar bodies in ATII cells from influenza A/WSN/33 (H1N1)-infected mice are smaller and have disordered lamellae.
FIG. 15 is a group of 3 transmission electron micrographs showing effects of influenza infection on ultrastructure of ATII cell mitochondria (Mi). Relative to mock-infected controls (left), Mi in ATII cells from A/WSN/33 (H1N1)-infected mice (center) are fewer in number, less electron dense, and have disordered membranes and cristae.

For assay [2], the system named is influenza-infected mice. The assay can be described thus: Effect of influenza infection and CDP-choline treatment on lung inflammation. Particulars: day 6 flu; 100 μg/mouse i.p. daily from 1-5 days post-infection. The class given is in vivo.
In assay [3] the test system is mice with ARDS induced by intranasal bleomycin. Put plainly: Bleomycin-induced ARDS in mice, i.p. liponucleotide treatment. The class given is in vivo. The note with it: day 7 after intranasal bleomycin 0.1 mg/mouse; daily i.p. from days 1-6.
The test system of assay [4] is influenza A/WSN/33 (H1N1)-infected mice. The assay can be described thus: Effect of influenza infection and i.p. liponucleotide treatment on lung function. Particulars: for CST / HR (bpm) / RBASAL / SaO2 (%) / WET:DRY: day 6. The class given is in vivo, mouse. An excerpt: CDP-choline improved oxygenation. SaO2 increased from approximately 85% to approximately 96%. This is equivalent to an increase in PaO2 from approximately 65 mmHg to approximately 85 mmHg. It is also equivalent to an increase in O2 carrying capacity of blood (CaO2) from approximately 88% to approximately 97% of normal. Patients with an SaO2 of 96% or a […] would not require additional treatment

Assay [5] deals with alveolar type II (ATII) epithelial cells isolated 6 days post-influenza infection. The assay can be described thus: Effect of influenza infection and CDP-choline treatment on mitochondrial function (Seahorse MitoStress test on isolated ATII cells). The class given is in vivo, mouse. As for the experimental part: FIG. 17 is a plot showing effect of daily i.p. treatment with CDP-choline (CDP-CHO, 100 μg/mouse) from 1-5 days post-influenza infection on basal O2 consumption rate (OCR) of alveolar type II (ATII) epithelial cells isolated at 6 days post-mock infection or 6 days post-influenza infection and OCR after subsequent treatment of the same ATII cells with oligomycin (1 μM). **=P<0.005, #=P<0.001.
FIG. 18 is a plot showing effect of daily i.p. treatment with CDP-choline (CDP-CHO, 100 μg/mouse) from 1-5 days post-influenza infection on ATP production, non-mitochondrial (non-mt) respiration, and proton (H^+) leak of alveolar type II (ATII) epithelial cells isolated at 6 days post-mock infection or 6 days post-influenza infection. *=P<0.05, #=P<0.001.

Assay [6] concerns influenza-infected mice. Put plainly: Treatment with CDP-choline precursors (choline, CTP) in influenza-infected mice, arterial oxygenation. The class given is in vivo. Particulars: day 6 post-influenza infection; daily i.p. 100 μg/mouse from 1-5 days post-infection; compared with CDP-choline. As for the experimental part: FIG. 16 is a plot showing effect of daily i.p. treatment with choline (100 μg/mouse), cytidine triphosphate (CTP, 100 μg/mouse), and choline+CTP from 1-5 days post-influenza infection on mouse O2 sats (SaO2) at day 6 post-influenza infection.

The mark [7] stands for this setting: day 6 flu, 100 μg/mouse i.p. daily from 1-5 days post-infection.
Where [8] appears, read: influenza-infected mice, 100 μg/mouse i.p. on day 5 only.
Where [9] appears, read: influenza-infected mice, i.p. daily from 1-5 days post-infection.
Setting [10] is: influenza-infected mice, i.p. daily from 1-5 days post-infection, CDP-CHO/CDP-ETH 100 μg/mouse, CDP-DAG 10 μg/mouse.
Setting [11] is: ATII cells isolated 6 days post-influenza infection, Seahorse MitoStress, effect on influenza-induced impairment.

“Also recorded” adds a separate entry of the source. Marks after values point to notes of the source that are not given here.

On to `C[N+](C)(C)CCOP(=O)(O)OP(=O)(O)OC[C@H]1O[C@@H](n2ccc(N)nc2=O)C(O)C1O` (some centres unmarked) [CDP-CHO, Cytidine diphosphate-choline], for which, in assay [1] (setting [7]), the “ATII CELL AREA (μm^2)” value is 53.64 ± 5.63* μm^2, the “LAMELLAR BODIES/CELL” value was found to be 8.1 ± 1.16, the “LAMELLAR BODY AREA (μm^2)” value was 0.41 ± 0.04* μm^2 and the MITOCHONDRIAL/CELL was 14.5 ± 1.78. In addition, the “MIT[…] (μm^2)” value in assay [1] (setting [7]) is 0.34 ± 0.01* μm^2. The “ATII cell lamellar body morphology” value in assay [1] (transmission electron micrographs, A/WSN/33 (H1N1)-infected mice) was “improves lamellar body morphology”. Moreover, the “ATII cell mitochondria (Mi) morphology” value in assay [1] (transmission electron micrographs, A/WSN/33 (H1N1)-infected mice, listed as CDP-choline) is “more electron-dense and have more normal cristae; also recorded: display normal morphology”. Moreover, in the assay with influenza-infected mice [2], the “BALF ALVEOLAR MACS (×10^6/ml)” value is 1.08 ± 0.21 ×10^6/ml, the “BALF NEUTROPHILS (×10^6/ml)” value is 0.45 ± 0.07 ×10^6/ml, the “BALF PC” value amounted to 1.61 ± 0.45 and the “VIRAL TITER (log PFU/g)” value is 5.32 ± 0.07 log PFU/g. Further, in assay [3], the “mouse O2 sats (SaO2), hypoxemia” value was “can attenuate hypoxemia” and the “mouse weight loss (% of starting body weight), cachexia” value is given as “no such beneficial effect”. Also, in assay [4] (equivalent of SaO2 increase, from approximately 65 mmHg), the “PaO2 equivalent after treatment” value is listed as “approximately 85 mmHg”. For the same compound, the “O2 carrying capacity of blood (CaO2) after treatment” value in assay [4] (equivalent of SaO2 increase, from approximately 88%) is “approximately 97 % of normal”. Further, in assay [4] (influenza-infected mice), the cardiac function result is “improved cardiac function”, the “effects of single dose treatment late in infection versus daily treatment” value was “as good as those of daily treatment”, the lung function entry was “better lung function” and the pulmonary edema result was “reduced pulmonary edema”. Moreover, in assay [4] (setting [8]), the CST was 0.05 ± 0.006, the “HR (bpm)” value was 550 ± 10 bpm, the RBASAL is reported as 1.63 ± 0.22 and the “SaO2 (%)” value was determined as 92.9 ± 1.5 %. The “WET:DRY” value in assay [4] (setting [8]) was 6.2 ± 0.2. Further, in assay [4] (setting [9]), the CST came out at 0.05 ± 0.002, the “HR (bpm)” value came out at 570 ± 10 bpm, the RBASAL was 1.96 ± 0.12 and the “WET:DRY” value is reported as 6.2 ± 0.4. The “SaO2 (%)” value in assay [4] (setting [10]) was 93.5 ± 1.0 %. Further, the SaO2 after treatment result in assay [4] (influenza-infected mice, increased from approximately 85%) is on record as “approximately 96%”. Moreover, the “basal O2 consumption rate (OCR), mitochondrial oxidative phosphorylation” value in assay [5] (ATII cells isolated 6 days post-influenza infection, 100 μg/mouse i.p. daily days 1-5, effect on influenza-induced impairment) is given as “reversed”. In assay [5] (setting [11]), the ATP production entry was “reversed”, the “non-mitochondrial (non-mt) respiration” value is “reversed” and the “proton (H+) leak (coupling efficiency)” value was “reversed”. Also, the “OCR after oligomycin (ATP synthase activity)” value in assay [5] (ATII cells isolated 6 days post-influenza infection, oligomycin 1 μM, effect on influenza-induced impairment) is “reversed”. In assay [5] (setting [7]), the “MITOCHONDRIAL MEMBRANE POTENTIAL (ψm; DilC1(5) MCF)” value is given as 10.14 ± 2.3* and the “MIT[…] PRODUCTION” value was 36.91 ± 6.82#.

`CCCCCCCCCCCCCCCC(=O)OC[C@H](COP(=O)(O)OP(=O)(O)OC[C@H]1O[C@@H](n2ccc(N)nc2=O)[C@H](O)[C@@H]1O)OC(=O)CCCCCCCCCCCCCCC` [CDP-DAG, CDP-diacylglycerol]: in assay [4] (setting [9]), the “HR (bpm)” value amounted to 600 ± 10 bpm and the “WET:DRY” value was 5.8 ± 0.1. Besides, the “SaO2 (%)” value in assay [4] (setting [10]) is 95.2 ± 1.6 %.

On to `NCCOP(=O)(O)OP(=O)(O)OC[C@H]1O[C@@H](n2ccc(N)nc2=O)[C@H](O)[C@@H]1O` [CDP-ETH, CDP-ethanolamine], for which, in assay [4] (setting [9]), the “HR (bpm)” value turned out to be 540 ± 20 bpm and the “WET:DRY” value is on record as 6.5 ± 0.4. Also, the “SaO2 (%)” value in assay [4] (setting [10]) is recorded as 91.1 ± 1.5%.

`Nc1ccn([C@@H]2O[C@H](COP(=O)(O)OP(=O)(O)OP(=O)(O)O)[C@@H](O)[C@H]2O)c(=O)n1` [CTP, cytidine triphosphate]: the “beneficial effect on arterial oxygenation, mouse O2 sats (SaO2)” value with influenza-infected mice [6] was “cannot be reproduced”.

Source of the values: patent US10874684B2, “Liponucleotide-based therapy for ARDS” (Ohio State Innovation Foundation, priority 2016, dated 2020).
